Laboratory results taken from PMC12144414 (iScience, 2025).
Peptide text beside a SMILES is read from it.

Tests used:
[1] = Physiological parameters during ischemia/reperfusion; format: in vivo, mouse; settings: 60 nmol GAI-17, during ischemia-reperfusion
Human recombinant GAPDH = Human recombinant GAPDH (Homo sapiens, UniProt P04406); experiment: GAI peptide inhibition of GAPDH aggregation; format: biochemical; settings: read-out: Potency: Aggregation inhibitory activity (%); SD
[2] = Levels of pyruvate in the brain; format: in vivo, mouse; settings: GAI-17 treatment; data not shown
[3] = Regional cerebral blood flow; format: in vivo, mouse; settings: 60 nmol GAI-17, during ischemia-reperfusion; n = 4
[4] = Stability in mouse blood serum; format: in vitro ADME; settings: prediction: endopeptidase cleavage upon peripheral injection; not tested
[5] = test system: mouse model of AIS induced by transient MCAO; settings: in vivo
mouse GAPDH = mouse GAPDH (Mus musculus, UniProt P16858); experiment: In vitro GAPDH aggregation assay with C152A-GAPDH; format: biochemical; settings: mouse GAPDH 0.3 mg/ml + C152A-GAPDH 0-0.75 mg/ml, 37°C 24 h, A405; n = 3
Sequence of mouse GAPDH (P16858 whole entry): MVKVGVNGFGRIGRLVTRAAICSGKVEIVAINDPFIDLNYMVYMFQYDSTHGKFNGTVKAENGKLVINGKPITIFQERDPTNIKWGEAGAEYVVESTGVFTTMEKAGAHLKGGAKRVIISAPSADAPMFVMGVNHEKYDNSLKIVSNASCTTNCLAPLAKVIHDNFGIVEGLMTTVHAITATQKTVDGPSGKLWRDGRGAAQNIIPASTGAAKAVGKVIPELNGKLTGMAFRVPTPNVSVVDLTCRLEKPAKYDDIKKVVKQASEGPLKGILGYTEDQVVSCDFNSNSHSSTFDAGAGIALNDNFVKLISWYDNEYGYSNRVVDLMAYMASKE

Sequence of Human recombinant GAPDH (P04406 whole entry): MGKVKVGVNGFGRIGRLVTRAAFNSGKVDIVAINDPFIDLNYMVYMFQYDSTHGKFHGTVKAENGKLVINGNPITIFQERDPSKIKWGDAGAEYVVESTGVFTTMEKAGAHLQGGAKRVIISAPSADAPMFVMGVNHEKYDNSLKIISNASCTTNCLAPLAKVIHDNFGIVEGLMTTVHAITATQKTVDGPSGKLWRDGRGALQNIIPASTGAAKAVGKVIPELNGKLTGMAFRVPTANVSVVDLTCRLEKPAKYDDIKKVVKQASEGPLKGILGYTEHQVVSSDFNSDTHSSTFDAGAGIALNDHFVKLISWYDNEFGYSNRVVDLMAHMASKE

For `C[C@@H](O)[C@H](NC(=O)[C@H](CS)NC(=O)[C@@H](N)CO)C(=O)O` [GAI-17] (H-Ser-Cys-Thr-OH), the “Physiological parameters (MBP, HR, blood PaO2, PaCO2, pH, RT)” value [1] was “no changes”, the inhibition (Human recombinant GAPDH) was 97.2 ± 1.88% and the “Levels of pyruvate in the brain” value [2] was “did not affect”. The Cerebral blood flow [3] was “no changes” and the “Stability in mouse blood serum” value [4] was “predicted to be unstable”.

With `C#CCN(C)[C@H](C)Cc1ccccc1` [deprenyl] the “Development of brain infarction caused by MCAO (infarct volume in whole brain)” value [5] was “no significant effect”.

With “human GAPDH-C152A: His-tagged recombinant human GAPDH mutant with Cys-152 substituted to alanine, dominant-negative for aggregation” the “Inhibitory effect on mouse GAPDH aggregation in vitro” value (mouse GAPDH) was “confirmed in vitro”.
